This is an account of results in patent EP0017478A1, “Dialkoxy- and dioxacycloalkyl-alkyltheobromines, pharmaceutical compositions containing them and their preparation” (BEECHAM - WUELFING GmbH & Co. KG, priority 1979, dated 1980).

Each structure is given as a SMILES string.

The nature of series [1]: Observation of toxic effects at the test dosages. The following applies: at the test dosage 12.5 mg/kg i.d., cats. The format is in vivo. The protocol: (§1) Cats of either sex were anaesthetized by i.p. injection of urethane/chloralosc (120/60 mg/kg). The intraduodenal (i.d.) administration of compounds was conducted by means of a plastic.catheter which was inserted into the duodenum following midline incision at the abdominal cavity.

The next series has as its system gastrocnemius muscle. As to the kind of experiment: Measurement of muscle surface pO2 (multiwire-surface electrode, one femoral artery ligated to induce ischaemia). The format is in vivo, Cats. The note with it: 12.5 mg/kg i.d., suspension in Methocel, n = 4; for Cs (significance coefficient = number of measuring sites with significant pO2 increase per total number of measuring sites) / ΔpO2 (mean pO2 increase in experiments with significant pO2 increase): anaesthetized cats; for E (efficiency-index = Cs x ΔpO2): control values E between 0.1 and 1.2 Torr. The procedure:
as §1
Measurement of muscle surface p02. The skin above the measuring site (3-4 mm in diameter) was removed and one multiwire-surface electrode (Eschweiler, Kiel) was placed on the gastrocnemius muscle of each hindlimb. The femoral artery in one hindlimb was ligated in order to induce ischaemia. Muscle temperature was controlled by means of a thermocouple (Ellab, Copenhagen). The electrode current was measured every 6 to 8 s and collected for periods of 4 min (Hewlett-Packard programmable data logger system 3051 A). After each period, mean value and standard deviation was calculated.

Regarding `Cn1cnc2c1c(=O)n(CCCCC1(C)OCCO1)c(=O)n2C` [2-Methyl-2-(theobrominyl-butyl-4)-1,3-dioxalane], the toxic effects result in series [1] was “No toxic effects were observed”. Also, in the series on gastrocnemius muscle (hypoxic tissue), the “Cs (significance coefficient = number of measuring sites with significant pO2 increase per total number of measuring sites)” value came out at 1, the “ΔpO2 (mean pO2 increase in experiments with significant pO2 increase)” value came out at 3.7 Torr and the “E (efficiency-index = Cs x ΔpO2)” value turned out to be 3.7 Torr. For the same compound, in the series with gastrocnemius muscle (normoxic tissue), the “Cs (significance coefficient = number of measuring sites with significant pO2 increase per total number of measuring sites)” value was 1, the “ΔpO2 (mean pO2 increase in experiments with significant pO2 increase)” value was 4.8 Torr and the “E (efficiency-index = Cs x ΔpO2)” value is listed as 4.8 Torr.
